PubChem BioAssay (NCI)
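How tested: cells in 96-well plates exposed to compound for 48 hours at five concentrations. At the GI50, growth is halved. TGI: concentration producing complete growth inhibition.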

What was measured:
Experiment in all cases: inhibition of tumour cell growth, NCI panel, 48 h
786-0 renal = system: 786-0 renal
A498 renal = system: A498 renal
A549 NSCLC = system: A549 NSCLC
ACHN renal = system: ACHN renal
BT-549 breast = system: BT-549 breast
CAKI-1 renal = system: CAKI-1 renal
CCRF-CEM leukemia = system: CCRF-CEM leukemia
COLO 205 colon = system: COLO 205 colon
DU-145 prostate = system: DU-145 prostate
EKVX NSCLC = system: EKVX NSCLC
HCC-2998 colon = system: HCC-2998 colon
HCT-116 colon = system: HCT-116 colon
HCT-15 colon = system: HCT-15 colon
HL-60(TB) leukemia = system: HL-60(TB) leukemia
HOP-62 NSCLC = system: HOP-62 NSCLC
HOP-92 NSCLC = system: HOP-92 NSCLC
HS 578T breast = system: HS 578T breast
HT29 colon = system: HT29 colon
IGROV1 ovarian = system: IGROV1 ovarian
K-562 leukemia = system: K-562 leukemia
LOX IMVI melanoma = system: LOX IMVI melanoma
M14 melanoma = system: M14 melanoma
MALME-3M melanoma = system: MALME-3M melanoma
MCF7 breast = system: MCF7 breast
MDA-MB-231 breast = system: MDA-MB-231 breast
MDA-MB-435 = system: MDA-MB-435
MOLT-4 leukemia = system: MOLT-4 leukemia
NCI-H226 lung = system: NCI-H226 lung
NCI-H23 lung = system: NCI-H23 lung
NCI-H460 lung = system: NCI-H460 lung
NCI-H522 lung = system: NCI-H522 lung
NCI/ADR-RES ovarian = system: NCI/ADR-RES ovarian
OVCAR-3 ovarian = system: OVCAR-3 ovarian
OVCAR-4 ovarian = system: OVCAR-4 ovarian
OVCAR-5 ovarian = system: OVCAR-5 ovarian
OVCAR-8 ovarian = system: OVCAR-8 ovarian
PC-3 prostate = system: PC-3 prostate
RPMI-8226 leukemia = system: RPMI-8226 leukemia
RXF 393 renal = system: RXF 393 renal
SF-268 CNS = system: SF-268 CNS
SF-295 CNS = system: SF-295 CNS
SF-539 CNS = system: SF-539 CNS
SK-MEL-2 melanoma = system: SK-MEL-2 melanoma
SK-MEL-28 melanoma = system: SK-MEL-28 melanoma
SK-MEL-5 melanoma = system: SK-MEL-5 melanoma
SK-OV-3 ovarian = system: SK-OV-3 ovarian
SN12C renal = system: SN12C renal
SNB-19 CNS = system: SNB-19 CNS
SNB-75 CNS = system: SNB-75 CNS
SR leukemia = system: SR leukemia
SW-620 colon = system: SW-620 colon
TK-10 renal = system: TK-10 renal
U251 CNS = system: U251 CNS
UACC-257 melanoma = system: UACC-257 melanoma
UACC-62 melanoma = system: UACC-62 melanoma
UO-31 renal = system: UO-31 renal

Question: For `CC1OC(O[C@@H]2[C@H](O)C(CO)OC(O[C@H]3COC(O[C@H]4CC[C@]5(C)[C@H]6CC[C@]78OC[C@@]9(CCC(C)(C)C[C@H]97)[C@H](O)C[C@@]8(C)[C@]6(C)CC[C@H]5C4(C)C)[C@@H](OC4OC(CO)[C@@H](O)[C@@H](O)[C@@H]4O)[C@@H]3O)[C@H]2OC2OC[C@@H](O)[C@@H](O)[C@@H]2O)[C@@H](O)[C@@H](O)[C@H]1O` (some centres not stated), which GI50 (786-0 renal) is on record?
Answer: 2800 nM

Question: What about the TGI (786-0 renal) of the same compound?
Answer: 5160 nM

Question: What about the GI50 (A498 renal) of the same compound?
Answer: 2440 nM

Question: What about the TGI (A498 renal) of the same compound?
Answer: 4590 nM

Question: What about the GI50 (A549 NSCLC) of the same compound?
Answer: 3070 nM

Question: And the TGI (A549 NSCLC)?
Answer: 5910 nM

Question: What about the GI50 (ACHN renal) of the same compound?
Answer: 621 nM

Question: What about the TGI (ACHN renal) of the same compound?
Answer: 2570 nM

Question: And the GI50 (BT-549 breast)?
Answer: 2360 nM

Question: What about the TGI (BT-549 breast) of the same compound?
Answer: 4550 nM

Question: And the GI50 (CAKI-1 renal)?
Answer: 2390 nM

Question: And the TGI (CAKI-1 renal)?
Answer: 4510 nM

Question: What about the GI50 (CCRF-CEM leukemia) of the same compound?
Answer: 698 nM

Question: What about the TGI (CCRF-CEM leukemia) of the same compound?
Answer: 3260 nM

Question: What about the GI50 (COLO 205 colon) of the same compound?
Answer: 2290 nM

Question: And the TGI (COLO 205 colon)?
Answer: 4500 nM

Question: And the GI50 (DU-145 prostate)?
Answer: 2470 nM

Question: And the TGI (DU-145 prostate)?
Answer: 4920 nM

Question: And the GI50 (EKVX NSCLC)?
Answer: 3040 nM

Question: What about the TGI (EKVX NSCLC) of the same compound?
Answer: 5480 nM

Question: And the GI50 (HCC-2998 colon)?
Answer: 1560 nM

Question: And the TGI (HCC-2998 colon)?
Answer: 3390 nM

Question: And the GI50 (HCT-116 colon)?
Answer: 1780 nM

Question: What about the TGI (HCT-116 colon) of the same compound?
Answer: 3680 nM

Question: What about the GI50 (HCT-15 colon) of the same compound?
Answer: 2520 nM

Question: And the TGI (HCT-15 colon)?
Answer: 4780 nM

Question: What about the GI50 (HL-60(TB) leukemia) of the same compound?
Answer: 345 nM

Question: What about the TGI (HL-60(TB) leukemia) of the same compound?
Answer: 700 nM

Question: What about the GI50 (HOP-62 NSCLC) of the same compound?
Answer: 2570 nM

Question: What about the TGI (HOP-62 NSCLC) of the same compound?
Answer: 4940 nM

Question: What about the GI50 (HOP-92 NSCLC) of the same compound?
Answer: 1850 nM

Question: And the TGI (HOP-92 NSCLC)?
Answer: 3810 nM

Question: And the GI50 (HS 578T breast)?
Answer: 2450 nM

Question: What about the TGI (HS 578T breast) of the same compound?
Answer: 5500 nM

Question: And the GI50 (HT29 colon)?
Answer: 2800 nM

Question: What about the TGI (HT29 colon) of the same compound?
Answer: 5230 nM

Question: What about the GI50 (IGROV1 ovarian) of the same compound?
Answer: 2310 nM

Question: What about the TGI (IGROV1 ovarian) of the same compound?
Answer: 4650 nM

Question: And the GI50 (K-562 leukemia)?
Answer: 2950 nM

Question: What about the TGI (K-562 leukemia) of the same compound?
Answer: 5980 nM

Question: What about the GI50 (LOX IMVI melanoma) of the same compound?
Answer: 2060 nM

Question: What about the TGI (LOX IMVI melanoma) of the same compound?
Answer: 4110 nM

Question: What about the GI50 (M14 melanoma) of the same compound?
Answer: 1440 nM

Question: And the TGI (M14 melanoma)?
Answer: 3350 nM

Question: What about the GI50 (MALME-3M melanoma) of the same compound?
Answer: 2580 nM

Question: And the TGI (MALME-3M melanoma)?
Answer: 4960 nM

Question: What about the GI50 (MCF7 breast) of the same compound?
Answer: 2230 nM

Question: And the TGI (MCF7 breast)?
Answer: 4830 nM

Question: And the GI50 (MDA-MB-231 breast)?
Answer: 2070 nM

Question: And the TGI (MDA-MB-231 breast)?
Answer: 4180 nM

Question: What about the GI50 (MDA-MB-435) of the same compound?
Answer: 2160 nM

Question: What about the TGI (MDA-MB-435) of the same compound?
Answer: 4220 nM

Question: What about the GI50 (MOLT-4 leukemia) of the same compound?
Answer: 535 nM

Question: And the TGI (MOLT-4 leukemia)?
Answer: 3270 nM

Question: And the GI50 (NCI-H226 lung)?
Answer: 2730 nM

Question: And the TGI (NCI-H226 lung)?
Answer: 5730 nM

Question: And the GI50 (NCI-H23 lung)?
Answer: 1910 nM

Question: And the TGI (NCI-H23 lung)?
Answer: 4140 nM

Question: What about the GI50 (NCI-H460 lung) of the same compound?
Answer: 2620 nM

Question: And the TGI (NCI-H460 lung)?
Answer: 5350 nM

Question: And the GI50 (NCI-H522 lung)?
Answer: 2450 nM

Question: And the TGI (NCI-H522 lung)?
Answer: 4690 nM

Question: And the GI50 (NCI/ADR-RES ovarian)?
Answer: 2640 nM

Question: What about the TGI (NCI/ADR-RES ovarian) of the same compound?
Answer: 5400 nM

Question: What about the GI50 (OVCAR-3 ovarian) of the same compound?
Answer: 2750 nM

Question: What about the TGI (OVCAR-3 ovarian) of the same compound?
Answer: 5040 nM

Question: And the GI50 (OVCAR-4 ovarian)?
Answer: 2250 nM

Question: What about the TGI (OVCAR-4 ovarian) of the same compound?
Answer: 4820 nM

Question: What about the GI50 (OVCAR-5 ovarian) of the same compound?
Answer: 2520 nM

Question: And the TGI (OVCAR-5 ovarian)?
Answer: 4920 nM

Question: What about the GI50 (OVCAR-8 ovarian) of the same compound?
Answer: 3500 nM

Question: What about the TGI (OVCAR-8 ovarian) of the same compound?
Answer: 6830 nM

Question: And the GI50 (PC-3 prostate)?
Answer: 2560 nM

Question: What about the TGI (PC-3 prostate) of the same compound?
Answer: 4770 nM

Question: And the GI50 (RPMI-8226 leukemia)?
Answer: 1930 nM

Question: And the TGI (RPMI-8226 leukemia)?
Answer: 4680 nM

Question: What about the GI50 (RXF 393 renal) of the same compound?
Answer: 566 nM

Question: What about the TGI (RXF 393 renal) of the same compound?
Answer: 2850 nM

Question: What about the GI50 (SF-268 CNS) of the same compound?
Answer: 2550 nM

Question: And the TGI (SF-268 CNS)?
Answer: 5130 nM

Question: What about the GI50 (SF-295 CNS) of the same compound?
Answer: 2580 nM

Question: What about the TGI (SF-295 CNS) of the same compound?
Answer: 4760 nM

Question: And the GI50 (SF-539 CNS)?
Answer: 1550 nM

Question: What about the TGI (SF-539 CNS) of the same compound?
Answer: 3510 nM

Question: And the GI50 (SK-MEL-2 melanoma)?
Answer: 2320 nM

Question: And the TGI (SK-MEL-2 melanoma)?
Answer: 4570 nM

Question: And the GI50 (SK-MEL-28 melanoma)?
Answer: 809 nM

Question: And the TGI (SK-MEL-28 melanoma)?
Answer: 2770 nM

Question: And the GI50 (SK-MEL-5 melanoma)?
Answer: 2270 nM

Question: What about the TGI (SK-MEL-5 melanoma) of the same compound?
Answer: 4370 nM

Question: What about the GI50 (SK-OV-3 ovarian) of the same compound?
Answer: 2410 nM

Question: What about the TGI (SK-OV-3 ovarian) of the same compound?
Answer: 4530 nM

Question: What about the GI50 (SN12C renal) of the same compound?
Answer: 1680 nM

Question: And the TGI (SN12C renal)?
Answer: 3560 nM

Question: And the GI50 (SNB-19 CNS)?
Answer: 2140 nM

Question: What about the TGI (SNB-19 CNS) of the same compound?
Answer: 4430 nM

Question: What about the GI50 (SNB-75 CNS) of the same compound?
Answer: 256 nM

Question: What about the TGI (SNB-75 CNS) of the same compound?
Answer: 1410 nM

Question: And the GI50 (SR leukemia)?
Answer: 16.9 nM

Question: What about the TGI (SR leukemia) of the same compound?
Answer: 1520 nM

Question: And the GI50 (SW-620 colon)?
Answer: 2550 nM

Question: What about the TGI (SW-620 colon) of the same compound?
Answer: 5120 nM

Question: And the GI50 (TK-10 renal)?
Answer: 3590 nM

Question: What about the TGI (TK-10 renal) of the same compound?
Answer: 5970 nM

Question: What about the GI50 (U251 CNS) of the same compound?
Answer: 2690 nM

Question: And the TGI (U251 CNS)?
Answer: 5130 nM

Question: And the GI50 (UACC-257 melanoma)?
Answer: 2850 nM

Question: What about the TGI (UACC-257 melanoma) of the same compound?
Answer: 5170 nM

Question: What about the GI50 (UACC-62 melanoma) of the same compound?
Answer: 2270 nM

Question: What about the TGI (UACC-62 melanoma) of the same compound?
Answer: 4340 nM

Question: And the GI50 (UO-31 renal)?
Answer: 323 nM

Question: What about the TGI (UO-31 renal) of the same compound?
Answer: 1140 nM
